Assay results reported in patent US20250127801A1, “BRIDGED TRICYCLIC CARBAMOYLPYRIDONE COMPOUNDS AND USES THEREOF” (priority 2023, published 2025).
pEC50: −log10 of the molar value. ≈ marks a conversion by molar mass, not a printed value. Like-named read-outs stand apart in the source and are kept apart here.

How the values were obtained:
in vitro = conditions: human; for CC50 at 5 days: uninfected MT-4 cells
physchem = conditions: 23 °C, thermodynamic from solid; for solubility thermodynamic: fassif; for solubility thermodynamic at 24 h: FaSSIF
HIV-1 (IIIB) = assay: microbe, parasite or virus in culture; format: cell-based; conditions: for EC50: Human immunodeficiency virus 1, IIIB, MT4, 120 h, read-out: MT4 EC50 (nM); for pEC50: Human immunodeficiency virus 1, MT4, 120 h, HIV-1 (IIIB) replication in MT-4 cells, 5 days incubation, Cell Titer Glo, read-out: MT4 EC50

solubility thermodynamic at 24 h (physchem) [µg/mL] | pEC50 (HIV-1 (IIIB)) | Compound | CC50 (in vitro) [nM] | solubility thermodynamic (physchem) [µg/mL] | EC50 (HIV-1 (IIIB)) [nM] | CC50 at 5 days (in vitro) [nM]
 |  | COC1=NO[C@@]2(CC[C@H](C)N3C[C@H]2n2cc(C(=O)NCc4ccc(F)cc4F)c(=O)c(OC(=O)N(C)c4ncccc4CN(CC(=O)O)C(=O)OCOP(=O)(O)O)c2C3=O)C1 [Compound 59, N-((2-(((((3′S,5S,7′R)-10′-((2,4-difluorobenzyl)carbamoyl)-3-methoxy-3′-methyl-1′,11′-dioxo-1′,4′,5′,11′-tetrahydro-3′H,4H,7′H-spiro[isoxazole-5,6′-[2,7]methanopyrido[1,2-a][1,4]diazonin]-12′-yl)oxy)carbonyl)(methyl)amino)pyridin-3-yl)methyl)-N-(((phosphonooxy)methoxy)carbonyl)glycine] | 10600 | 5280 (≈ 6.01 mM) | 1.2 | 
 |  | CC1=NO[C@@]2(CC[C@H](C)N3C[C@H]2n2cc(C(=O)NCc4ccc(F)cc4F)c(=O)c(OC(=O)N(C)c4ncccc4CN(C)C(=O)OCOP(=O)(O)O)c2C3=O)C1 [Compound 61, (phosphonooxy)methyl ((2-(((((3′S,5S,7′R)-10′-((2,4-difluorobenzyl)carbamoyl)-3,3′-dimethyl-1′,11′-dioxo-1′,4′,5′,11′-tetrahydro-3′H,4H,7′H-spiro[isoxazole-5,6′-[2,7]methanopyrido[1,2-a][1,4]diazonin]-12′-yl)oxy)carbonyl)(methyl)amino)pyridin-3-yl)methyl)(methyl)carbamate] | 15200 | 4140 (≈ 5.07 mM) | 1.39 | 
 |  | CC1=NO[C@@]2(CC[C@H](C)N3C[C@H]2n2cc(C(=O)NCc4ccc(F)cc4F)c(=O)c(OCOC(=O)N(C)c4ncccc4CN(C)C(=O)OCOP(=O)(O)O)c2C3=O)C1 [Compound 62, (phosphonooxy)methyl ((2-((((((3′S,5S,7′R)-10′-((2,4-difluorobenzyl)carbamoyl)-3,3′-dimethyl-1′,11′-dioxo-1′,4′,5′,11′-tetrahydro-3′H,4H,7′H-spiro[isoxazole-5,6′-[2,7]methanopyrido[1,2-a][1,4]diazonin]-12′-yl)oxy)methoxy)carbonyl)(methyl)amino)pyridin-3-yl)methyl)(methyl)carbamate] | 14600 | 5030 (≈ 5.93 mM) | 1.73 | 
 |  | CC1=NO[C@@]2(CC[C@H](C)N3C[C@H]2n2cc(C(=O)NCc4ccc(F)cc4F)c(=O)c(OCOC(=O)N4CCOC[C@@H]4COP(=O)(O)O)c2C3=O)C1 [Compound 63, (((3′S,5S,7′R)-10′-((2,4-difluorobenzyl)carbamoyl)-3,3′-dimethyl-1′,11′-dioxo-1′,4′,5′,11′-tetrahydro-3′H,4H,7′H-spiro[isoxazole-5,6′-[2,7]methanopyrido[1,2-a][1,4]diazonin]-12′-yl)oxy)methyl (3R)-3-((phosphonooxy)methyl)morpholine-4-carboxylate] | ≥ 50000 | 5000 (≈ 6.76 mM) | 18.7 | 
4840 (≈ 6.54 mM) | 7.67 | CC1=NO[C@@]2(CC[C@H](C)N3C[C@H]2n2cc(C(=O)NCc4ccc(F)cc4F)c(=O)c(OCOC(=O)N4CCOC[C@H]4COP(=O)(O)O)c2C3=O)C1 [Compound 64, (((3′S,5S,7′R)-10′-((2,4-difluorobenzyl)carbamoyl)-3,3′-dimethyl-1′,11′-dioxo-1′,4′,5′,11′-tetrahydro-3′H,4H,7′H-spiro[isoxazole-5,6′-[2,7]methanopyrido[1,2-a][1,4]diazonin]-12′-yl)oxy)methyl (3S)-3-((phosphonooxy)methyl)morpholine-4-carboxylate] |  |  |  | ≥ 50000
4820 (≈ 6.67 mM) | 7.19 | CC1=NO[C@@]2(CC[C@H](C)N3C[C@H]2n2cc(C(=O)NCc4ccc(F)cc4F)c(=O)c(OCOC(=O)N4CCC[C@H]4COP(=O)(O)O)c2C3=O)C1 [Compound 66, (((3′S,5S,7′R)-10′-((2,4-difluorobenzyl)carbamoyl)-3,3′-dimethyl-1′,11′-dioxo-1′,4′,5′,11′-tetrahydro-3′H,4H,7′H-spiro[isoxazole-5,6′-[2,7]methanopyrido[1,2-a][1,4]diazonin]-12′-yl)oxy)methyl (2S)-2-((phosphonooxy)methyl)pyrrolidine-1-carboxylate] |  |  |  | ≥ 50000
 |  | CC1=NO[C@@]2(CC[C@H](C)N3C[C@H]2n2cc(C(=O)NCc4ccc(F)cc4F)c(=O)c(OCc4ccccc4OP(=O)(O)O)c2C3=O)C1 [Compound 69, 2-((((3′S,5S,7′R)-10′-((2,4-difluorobenzyl)carbamoyl)-3,3′-dimethyl-1′,11′-dioxo-1′,4′,5′,11′-tetrahydro-3′H,4H,7′H-spiro[isoxazole-5,6′-[2,7]methanopyrido[1,2-a][1,4]diazonin]-12′-yl)oxy)methyl)phenyl dihydrogen phosphate] | 14100 | 5140 | 1.78 | 
 |  | CC1=NO[C@@]2(CC[C@H](C)N3C[C@H]2n2cc(C(=O)NCc4ccc(F)cc4F)c(=O)c(OCc4ccncc4OP(=O)(O)O)c2C3=O)C1 [Compound 70, 4-((((3′S,5S,7′R)-10′-((2,4-difluorobenzyl)carbamoyl)-3,3′-dimethyl-1′,11′-dioxo-1′,4′,5′,11′-tetrahydro-3′H,4H,7′H-spiro[isoxazole-5,6′-[2,7]methanopyrido[1,2-a][1,4]diazonin]-12′-yl)oxy)methyl)pyridin-3-yl dihydrogen phosphate] | 10200 | 2460 | 1.63 | 
 |  | CC1=NO[C@@]2(CC[C@H](C)N3C[C@H]2n2cc(C(=O)NCc4ccc(F)cc4F)c(=O)c(OCc4ccc(OP(=O)(O)O)cn4)c2C3=O)C1 [Compound 71, 6-((((3′S,5S,7′R)-10′-((2,4-difluorobenzyl)carbamoyl)-3,3′-dimethyl-1′,11′-dioxo-1′,4′,5′,11′-tetrahydro-3′H,4H,7′H-spiro[isoxazole-5,6′-[2,7]methanopyrido[1,2-a][1,4]diazonin]-12′-yl)oxy)methyl)pyridin-3-yl dihydrogen phosphate] | 9300 | 3470 | 1.02 | 
 |  | CC1=NO[C@@]2(CC[C@H](C)N3C[C@H]2n2cc(C(=O)NCc4ccc(F)cc4F)c(=O)c(OCOC(=O)OCc4ccncc4OP(=O)(O)O)c2C3=O)C1 [Compound 72, (((3′S,5S,7′R)-10′-((2,4-difluorobenzyl)carbamoyl)-3,3′-dimethyl-1′,11′-dioxo-1′,4′,5′,11′-tetrahydro-3′H,4H,7′H-spiro[isoxazole-5,6′-[2,7]methanopyrido[1,2-a][1,4]diazonin]-12′-yl)oxy)methyl ((3-(phosphonooxy)pyridin-4-yl)methyl) carbonate] | 11200 | 2560 (≈ 3.42 mM) | 1.34 | 
 |  | CC1=NO[C@@]2(CC[C@H](C)N3C[C@H]2n2cc(C(=O)NCc4ccc(F)cc4F)c(=O)c(OCOC(=O)N(C)Cc4ccc(C(=O)O)cc4OP(=O)(O)O)c2C3=O)C1 [Compound 74, 4-(((((((3′S,5S,7′R)-10′-((2,4-difluorobenzyl)carbamoyl)-3,3′-dimethyl-1′,11′-dioxo-1′,4′,5′,11′-tetrahydro-3′H,4H,7′H-spiro[isoxazole-5,6′-[2,7]methanopyrido[1,2-a][1,4]diazonin]-12′-yl)oxy)methoxy)carbonyl)(methyl)amino)methyl)-3-(phosphonooxy)benzoic acid] | 29400 | 4860 (≈ 6.05 mM) | 6.61 | 
 |  | CC1=NO[C@@]2(CC[C@H](C)N3C[C@H]2n2cc(C(=O)NCc4ccc(F)cc4F)c(=O)c(OCOC(=O)N(C)Cc4cc(C(=O)O)ccc4OP(=O)(O)O)c2C3=O)C1 [Compound 76, 3-(((((((3′S,5S,7′R)-10′-((2,4-difluorobenzyl)carbamoyl)-3,3′-dimethyl-1′,11′-dioxo-1′,4′,5′,11′-tetrahydro-3′H,4H,7′H-spiro[isoxazole-5,6′-[2,7]methanopyrido[1,2-a][1,4]diazonin]-12′-yl)oxy)methoxy)carbonyl)(methyl)amino)methyl)-4-(phosphonooxy)benzoic acid] | 12900 | 4060 (≈ 5.05 mM) | 4.41 | 
5140 (≈ 6.95 mM) | 8.66 | CC1=NO[C@@]2(CC[C@H](C)N3C[C@H]2n2cc(C(=O)NCc4ccc(F)cc4F)c(=O)c(OCOC(=O)[C@@H]4[C@H](COP(=O)(O)O)[C@H]4C(=O)O)c2C3=O)C1 [Compound 78, (1R,2R,3R)-2-(((((3′S,5S,7′R)-10′-((2,4-difluorobenzyl)carbamoyl)-3,3′-dimethyl-1′,11′-dioxo-1′,4′,5′,11′-tetrahydro-3′H,4H,7′H-spiro[isoxazole-5,6′-[2,7]methanopyrido[1,2-a][1,4]diazonin]-12′-yl)oxy)methoxy)carbonyl)-3-((phosphonooxy)methyl)cyclopropane-1-carboxylic acid] |  |  |  | 8050
4520 (≈ 6.11 mM) | 8.65 | CC1=NO[C@@]2(CC[C@H](C)N3C[C@H]2n2cc(C(=O)NCc4ccc(F)cc4F)c(=O)c(OCOC(=O)[C@H]4[C@@H](COP(=O)(O)O)[C@@H]4C(=O)O)c2C3=O)C1 [Compound 79, (1S,2S,3S)-2-(((((3′S,5S,7′R)-10′-((2,4-difluorobenzyl)carbamoyl)-3,3′-dimethyl-1′,11′-dioxo-1′,4′,5′,11′-tetrahydro-3′H,4H,7′H-spiro[isoxazole-5,6′-[2,7]methanopyrido[1,2-a][1,4]diazonin]-12′-yl)oxy)methoxy)carbonyl)-3-((phosphonooxy)methyl)cyclopropane-1-carboxylic acid] |  |  |  | 12500
 |  | CC1=NO[C@@]2(CC[C@H](C)N3C[C@H]2n2cc(C(=O)NCc4ccc(F)cc4F)c(=O)c(OCOC(=O)[C@@H]4CC[C@@H]4CN(CC(=O)O)C(=O)OCOP(=O)(O)O)c2C3=O)C1 [Compound 80, N-(((1S,2R)-2-(((((3′S,5S,7′R)-10′-((2,4-difluorobenzyl)carbamoyl)-3,3′-dimethyl-1′,11′-dioxo-1′,4′,5′,11′-tetrahydro-3′H,4H,7′H-spiro[isoxazole-5,6′-[2,7]methanopyrido[1,2-a][1,4]diazonin]-12′-yl)oxy)methoxy)carbonyl)cyclobutyl)methyl)-N-(((phosphonooxy)methoxy)carbonyl)glycine] | 10100 | 4150 (≈ 4.94 mM) | 0.785 | 
